The values that follow come from PMC7765920 (Molecules, 2020).

Holding throughout (assay type): biochemical
Test [1] deals with T1, human recombinant MAO-A (Homo sapiens, UniProt P21397).
T1 sequence (P21397 1-527): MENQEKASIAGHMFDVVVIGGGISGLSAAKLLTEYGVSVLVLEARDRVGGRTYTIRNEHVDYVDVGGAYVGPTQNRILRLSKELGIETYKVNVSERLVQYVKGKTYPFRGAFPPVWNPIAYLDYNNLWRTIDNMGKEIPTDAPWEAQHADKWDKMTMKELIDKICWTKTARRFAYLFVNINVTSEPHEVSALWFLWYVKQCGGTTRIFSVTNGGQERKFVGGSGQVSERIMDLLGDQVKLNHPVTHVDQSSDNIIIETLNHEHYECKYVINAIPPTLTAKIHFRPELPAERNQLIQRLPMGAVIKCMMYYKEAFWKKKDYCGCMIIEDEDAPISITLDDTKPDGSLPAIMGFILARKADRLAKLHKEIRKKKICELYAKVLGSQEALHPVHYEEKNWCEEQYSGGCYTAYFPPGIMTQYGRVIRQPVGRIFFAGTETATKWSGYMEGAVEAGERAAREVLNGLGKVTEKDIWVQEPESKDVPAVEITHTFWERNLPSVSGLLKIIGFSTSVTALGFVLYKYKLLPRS
The test is described as follows: MAO-GLO luminescence assay of MAO-A catalytic activity. The conditions noted are these: read-out: MAO-A residual activity. The protocol: (§1) Optimization of the compounds, however, aimed predominantly at elimination of MAO-A-inhibitory activity while keeping DYRK1A inhibitory potency, and not at achieving high selectivity for DYRK1A over CLK1. The tests were performed as described by us before in detail. Due to the very large number of test compounds (more than 60), a first screening was performed at a single inhibitor concentration of 1 µM.
(§2) Inhibitors were dissolved in DMSO at a concentration of 10 mM and stored at […]. Working solutions were prepared to achieve a final concentration of 1 µM in the enzyme assays.
Catalytic activity of monoamine oxidase A (MAO-A) was measured by using the luminescence-based MAO-GLO^TM Assay from Promega. Recombinant MAO-A converts a luminogenic MAO substrate into luciferin, which is, in turn, luminometrically detected in a luciferase reaction. The amount of light produced is directly proportional to MAO activity. […] Inhibitory effects of the tested compounds were calculated relative to the activity of control reactions that were run in the absence of inhibitors.

Test [2] deals with T2, GST-DYRK1A-ΔC (amino acids 1–499 of rat DYRK1A) (Rattus norvegicus, UniProt Q63470).
T2 construct: containing amino acids 1–499 of rat DYRK1A; made in house; host or cells: E. coli
The test is described as follows: Kinase-GLO luminescent assay of DYRK1A catalytic activity. The conditions noted are these: read-out: DYRK1A residual activity. The method, then:
as §1, §2
(§3) Recombinant kinases were purified from E. coli as GST (glutathione S-transferase) fusion constructs by affinity adsorption to glutathione-Sepharose. […] Catalytic activity of the kinases was measured with the help of the Kinase-GLO^TM Luminescent Assay from Promega. Assays were performed in a total volume of 10 μL in kinase buffer (25 mM Hepes pH 7.4, 0.5 mM DTT, 5 mM MgCl2, 5 μM ATP) with appropriate peptide substrates (20 μM DYRKtide for the DYRKs and 100 μM DYRKtide for HIPK2, […]; or 100 μM RS peptide for CLK1, […]). Kinases amounts in the assays were adjusted so that approximately 90% of the ATP in the assay was consumed in control samples without inhibitor. Kinase reactions were incubated at room temperature for 30 min before 10 μL Kinase-GLO reagent was added for luminometric measurement of the ATP that was not consumed by the kinases. After incubation at room temperature for an additional 10 min, luminescence was recorded for 1 s (Berthold Orion Microplate Luminometer). ATP consumption in the control samples without inhibitor was set as 100% catalytic activity, and the inhibitory effects of the test compounds were calculated relative to this value.
For orientation: In Kinase-Glo more light means more ATP remaining.

In test [3] the target is T3, GST-CLK1cat (amino acids 141–484 of human CLK1) (Homo sapiens, UniProt P49759).
T3 construct: containing amino acids 141–484 of human CLK1; made in house; host or cells: E. coli
T3 sequence (P49759 141-484): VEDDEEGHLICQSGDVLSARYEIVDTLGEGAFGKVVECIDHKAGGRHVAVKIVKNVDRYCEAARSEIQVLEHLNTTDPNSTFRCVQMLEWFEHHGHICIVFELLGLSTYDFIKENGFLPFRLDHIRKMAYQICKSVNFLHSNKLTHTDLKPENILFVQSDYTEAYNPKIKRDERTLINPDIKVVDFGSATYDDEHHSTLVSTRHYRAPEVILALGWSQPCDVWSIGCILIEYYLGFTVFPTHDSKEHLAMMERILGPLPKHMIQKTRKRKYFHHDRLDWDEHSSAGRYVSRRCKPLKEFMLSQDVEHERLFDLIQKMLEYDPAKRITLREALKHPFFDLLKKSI
The test is described as follows: Kinase-GLO luminescent assay of CLK1 catalytic activity. The conditions noted are these: read-out: CLK1 residual activity. The method, then: as §1, §2, §3

[4] abbreviates: 1 µM inhibitor concentration, residual activity relative to control without inhibitor.

SMILES strings stand for the structures. Read-outs that look alike come from different tables or passages of the source.

Consider `COc1ccc2c3ccnc(C)c3n(Cc3ccncc3)c2c1` [AnnH36, 7-Methoxy-1-methyl-9-(pyridin-4-yl-methyl)-9H-pyrido[3,4-b]indole], for which the values for the remaining activity at 1 µM in test [1] (setting [4]), in test [2] (setting [4]) and in test [3] (setting [4]) were 19%, 59% and 62%, respectively.
Regarding `COc1ccc2c3ccnc(C)c3n(CCCc3ccccc3)c2c1` [AnnH38, 7-Methoxy-1-methyl-9-(3-phenylpropyl)-9H-pyrido[3,4-b]indole], the values for the remaining activity at 1 µM in test [1] (setting [4]), in test [2] (setting [4]) and in test [3] (setting [4]) were 127%, 12% and 31%, respectively.
Turning to `COc1ccc2c3ccnc(C)c3n(Cc3ccc4ccccc4c3)c2c1` [AnnH39, 7-Methoxy-1-methyl-9-(2-naphthylmethyl)-9H-pyrido[3,4-b]indole], the remaining activity at 1 µM in test [1] (setting [4]) stood at 125%; in test [2] (setting [4]) it was 91%; in test [3] (setting [4]), 84%.
As to `COc1ccc2c3ccnc(C)c3n(CCOc3ccccc3)c2c1` [AnnH40, 7-Methoxy-1-methyl-9-(2-phenoxyethyl)-9H-pyrido[3,4-b]indole], the remaining activity at 1 µM in test [1] (setting [4]) amounted to 30%; in test [2] (setting [4]) it was 40%; in test [3] (setting [4]), 37%.
For `COc1ccc2c3ccnc(C)c3n(CCC#N)c2c1` [AnnH42, 3-(7-Methoxy-1-methyl-9H-pyrido[3,4-b]indol-9-yl)propanenitrile] the same measures were 114%, 22% and 44%.
For `C#CCn1c2cc(OC)ccc2c2ccnc(C)c21` [AnnH44, 7-Methoxy-1-methyl-9-(prop-2-yn-1-yl)-9H-pyrido[3,4-b]indole] the same measures were 22%, 2% and 17%.
For `Clc1ccc2c([nH]c3c(Br)nccc32)c1Cl` [AnnH52, 1-Bromo-7,8-dichloro-9H-pyrido[3,4-b]indole], the remaining activity at 1 µM in test [1] (setting [4]) turned out to be 118%; in test [2] (setting [4]) it was 36%; in test [3] (setting [4]) it was 45%.
The corresponding values for `COc1ccc2c3ccnc(C)c3n(CCN3CCCC3)c2c1` [AnnH55, 7-Methoxy-1-methyl-9-[2-(pyrrolidin-1-yl)ethyl]-9H-pyrido[3,4-b]indole] are 67%, 48% and 85%.
On to `COc1ccc2c3ccnc(C)c3n(CCN3CCCCC3)c2c1` [AnnH57, 7-Methoxy-1-methyl-9-[2-(piperidin-1-yl)ethyl]-9H-pyrido[3,4-b]indole], for which the remaining activity at 1 µM in test [1] (setting [4]) was 97%; in test [2] (setting [4]), 33%; in test [3] (setting [4]), 78%.
For `COc1ccc2c3ccnc(C)c3n(C(C)=O)c2c1` [AnnH59, 1-(7-Methoxy-1-methyl-9H-pyrido[3,4-b]indol-9-yl)ethan-1-one] the same measures were 19%, 30% and 15%.
With `Cc1nccc2c1[nH]c1c(Cl)c(Cl)ccc12` [AnnH63, 7,8-Dichloro-1-methyl-9H-pyrido[3,4-b]indole], the values for the remaining activity at 1 µM in test [1] (setting [4]), in test [2] (setting [4]) and in test [3] (setting [4]) were 32%, 3% and 26%, respectively.
With `CCOC(=O)Cn1c2c(C)nccc2c2ccc(Cl)c(Cl)c21` [AnnH66, Ethyl 2-(7,8-Dichloro-1-methyl-9H-pyrido[3,4-b]-9-yl)acetate], the results for the remaining activity at 1 µM in test [1] (setting [4]), in test [2] (setting [4]) and in test [3] (setting [4]) were 78%, 26% and 71%, respectively.
For `C#CCn1c2c(C)nccc2c2ccc(Cl)c(Cl)c21` [AnnH67, 7,8-Dichloro-1-methyl-9-(prop-2-yn-1-yl)-9H-pyrido[3,4-b]indole] the same measures were 122%, 17% and 34%.
Take `Cc1nccc2c3ccc(Cl)c(Cl)c3n(CC#N)c12` [AnnH69, 2-(7,8-Dichloro-1-methyl-9H-pyrido[3,4-b]indol-9-yl)acetonitrile]: the remaining activity at 1 µM amounted to 101% in test [1], 17% in test [2] and 33% in test [3].
The corresponding values for `COc1ccc2c3ccnc(C)c3n(CC=C(C)C)c2c1` [AnnH73, 7-Methoxy-1-methyl-9-(3-methylbut-2-en-1-yl)-9H-pyrido[3,4-b]indole] are 52%, 6% and 2%.
For the compound `C#CCn1c2cc(OC)ccc2c2ccnc(Cl)c21` [AnnH74, 1-Chloro-7-methoxy-9-(prop-2-yn-1-yl)-9H-pyrido[3,4-b]indole], the remaining activity at 1 µM in test [1] (setting [4]) came out at 112%; in test [2] (setting [4]) it was 12%; in test [3] (setting [4]) it was 46%.
With `CCOC(=O)Cn1c2cc(OC)ccc2c2ccnc(Cl)c21` [AnnH76, Ethyl 2-(1-Chloro-7-methoxy-9H-pyrido[3,4-b]indol-9-yl)acetate], the figures for the remaining activity at 1 µM in test [1] (setting [4]), in test [2] (setting [4]) and in test [3] (setting [4]) were 112%, 35% and 96%, respectively.
As to `N#CCn1c2c(Br)nccc2c2ccc(Cl)c(Cl)c21` [AnnH79, 2-(1-Bromo-7,8-dichloro-9H-pyrido[3,4-b]indol-9-yl)-acetonitrile], the remaining activity at 1 µM in test [1] (setting [4]) was 143%; in test [2] (setting [4]) it was 93%; in test [3] (setting [4]), 88%.
Turning to `C#CCn1c2c(Br)nccc2c2ccc(Cl)c(Cl)c21` [AnnH80, 1-Bromo-7,8-dichloro-9-(prop-2-yn-1-yl)-9H-pyrido[3,4-b]indole], the remaining activity at 1 µM in test [1] (setting [4]) worked out at 123%; in test [2] (setting [4]), 95%; in test [3] (setting [4]) it was 84%.
Take `CCOC(=O)Cn1c2cc(OC)ccc2c2ccnc(CC)c21` [AnnH88, Ethyl 2-(1-ethyl-7-methoxy-9H-pyrido[3,4-b]indol-9-yl)acetate]: the remaining activity at 1 µM amounted to 137% in test [1] (setting [4]), 47% in test [2] (setting [4]) and 52% in test [3] (setting [4]).
On to `CCc1nccc2c1[nH]c1cc(OC)ccc12` [AnnH89, 1-Ethyl-7-methoxy-9H-pyrido[3,4-b]indole], for which the remaining activity at 1 µM in test [1] (setting [4]) came out at 34%; in test [2] (setting [4]) it was 37%; in test [3] (setting [4]), 7%.
For the compound `COc1ccc2c(c1)[nH]c1c(C)cccc12` [AnnHOG3, 7-Methoxy-1-methyl-9H-carbazole], the remaining activity at 1 µM came to 100% in test [1] (setting [4]), 71% in test [2] (setting [4]) and 97% in test [3] (setting [4]).
As for `COc1ccc2c(c1)C(=O)c1c-2ccnc1C` [AnnHT2, 7-Methoxy-1-methyl-9H-indeno-[2,1-c]pyridin-9-one], the remaining activity at 1 µM in test [1] (setting [4]) came out at 15%; in test [2] (setting [4]) it was 55%; in test [3] (setting [4]) it was 54%.
The corresponding values for `COc1ccc2c(c1)/C(=C\C#N)c1c-2ccnc1C` [AnnHT5, (2E)-(7-Methoxy-1-methyl-9H-indeno[2,1c]pyridin-9-ylidene)ethanenitrile] are 65%, 35% and 7%.
For `Cc1nccc2c1C(=O)c1cc(O)ccc1-2` [AnnHT6, 7-Hydroxy-1-methyl-9H-indeno-[2,1-c]pyridin-9-one] the same measures were 46%, 37% and 27%.
